Source: patent publication US20110301143A1, “HETEROCYCLIC DERIVATIVES AS INHIBITORS OF STEAROYL-COENZYME A DELTA-9 DESATURASE” (priority 2009, published 2011)
pIC50: −log10 of the molar value.

Biological target: T1, human SCD1 (hSCD-1) (Homo sapiens, UniProt O00767)
T1 construct: made in house; host or cells: baculovirus/Sf9 insect cells
T1 sequence (O00767 1-359): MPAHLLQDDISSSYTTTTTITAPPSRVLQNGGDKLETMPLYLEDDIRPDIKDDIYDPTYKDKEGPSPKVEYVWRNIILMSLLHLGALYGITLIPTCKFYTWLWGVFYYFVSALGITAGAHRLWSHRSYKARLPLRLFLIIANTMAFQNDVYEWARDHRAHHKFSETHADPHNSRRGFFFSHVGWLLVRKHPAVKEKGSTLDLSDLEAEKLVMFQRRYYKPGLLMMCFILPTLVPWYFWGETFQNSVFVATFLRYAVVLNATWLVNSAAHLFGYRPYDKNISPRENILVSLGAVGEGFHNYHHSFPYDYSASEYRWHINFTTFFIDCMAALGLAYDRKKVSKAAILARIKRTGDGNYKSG
Test: SCD enzyme activity assay, reconstituted human SCD1 (conversion of radiolabeled stearoyl-CoA to oleoyl-CoA)
Format: biochemical
Conditions: human SCD-1
Method: The potency of compounds of formula I against the stearoyl-CoA desaturase was determined by measuring the conversion of radiolabeled stearoyl-CoA to oleoyl-CoA using rat liver microsome or human SCD1 (hSCD-1) following previously published procedures with some modifications (Joshi, et al., J. Lipid Res., 18: 32-36 (1977); Talamo, et al., Anal. Biochem, 29: 300-304 (1969)). Liver microsome was prepared from male Wistar or Sprague Dawley rats on a high carbohydrate diet for 3 days (LabDiet # 5803, Purina). The livers were homogenized (1:10 w/v) in a buffer containing 250 mM sucrose, 1 mM EDTA, 5 mM DTT and 50 mM Tris-HCl (pH 7.5). After a 100,000×g centrifugation for 60 min, the liver microsome pellet was suspended in a buffer containing 100 mM sodium phosphate, 20% glycerol, 2 mM DTT, and stored at −78° C. Human SCD1 desaturase system was reconstituted using human SCD1 from a baculovirus/Sf9 expression system, cytochrome B5 and cytochrome B5 reductase. Typically, test compound in 2 μL DMSO was incubated for 15 min at room temperature with 180 μL of the SCD enzyme in a buffer containing 100 mM Tris-HCl (pH 7.5), ATP (5 mM), Coenzyme-A (0.1 mM), Triton X-100 (0.5 mM) and NADH (2 mM). The reaction was initiated by the addition of 20 μL of [^3H]-stearoyl-CoA (final concentration=2 μM, radioactivity concentration=1 μCi/mL). After 10 min, the reaction mixture (80 μL) was mixed with a calcium chloride/charcoal aqueous suspension (100 μl, charcoal (10% w/v) plus 25 μL CaCl2 (2N). After centrifugation to precipitate the radioactive fatty acid species, tritiated water released from 9,10-[^3H]-stearoyl-CoA by the SCD enzyme was quantified on a scintillation counter.

Structure (SMILES)	pIC50
O=C(O)Cn1nnc(-c2cc(N3CCN(C(=O)c4cccc(OC(F)(F)F)c4)CC3)no2)n1	> 7.70
O=C(O)Cn1nnc(-c2cnc(N3CCC(C(=O)c4ccccc4C(F)(F)F)CC3)s2)n1	> 7.70
O=C(O)Cn1nnc(-c2cnc(N3CCN(c4cccc(OC(F)(F)F)c4)CC3)s2)n1	> 7.70
O=C(O)Cn1nnc(-c2cc(N3CCN(C(=O)c4cc(C(F)(F)F)ccc4Cl)CC3)no2)n1	7.62
O=C(O)Cn1nnc(-c2cc(N3CCN(c4cccc(C(F)(F)F)c4)CC3)no2)n1	7.08
O=C(O)Cn1nnc(-c2cc(N3CCN(c4cc(F)ccc4Cl)CC3)no2)n1	7.46
O=C(O)Cn1nnc(-c2cnc(N3CCCN(c4ccccc4C(F)(F)F)CC3)s2)n1	7.52
O=C(O)Cn1nnc(-c2cnc(N3CCCN(c4cc(F)ccc4Cl)CC3)s2)n1	7.54
O=C(O)Cn1nnc(-c2cc(N3CCC(C(=O)c4ccccc4C(F)(F)F)CC3)no2)n1	> 7.70
O=C(O)Cn1nnc(-c2cnc(N3CC=C(c4ccccc4C(F)(F)F)CC3)s2)n1	> 7.70
CCc1ccc(F)cc1C(=O)C1CCN(c2cc(-c3nnn(CC(=O)O)n3)on2)CC1	> 7.70
O=C(O)Cn1nnc(-c2cnc(N3CCC(c4cccc(C(F)(F)F)c4)CC3)s2)n1	> 7.70
O=C(O)Cn1nnc(-c2cnc(N3CCN(c4cc(C(F)(F)F)cc(C(F)(F)F)c4)CC3)nc2)n1	7.36
O=C(O)Cn1nnc(-c2cnc(N3CCN(c4ccccc4C(F)(F)F)CC3)s2)n1	> 7.70
O=C(O)Cn1nnc(-c2cnc(N3CCN(c4cc(F)ccc4Cl)CC3)s2)n1	> 7.70
O=C(O)Cn1nnc(-c2cc(N3CCC(C(=O)c4cc(F)ccc4Cl)CC3)no2)n1	> 7.70
O=C(O)Cn1nnc(-c2cc(N3CCC(C(=O)c4cc(F)ccc4C(F)(F)F)CC3)no2)n1	> 7.70
O=C(O)Cn1nnc(-c2cc(N3CCC(C(=O)c4cc(C(F)(F)F)ccc4Cl)CC3)no2)n1	7.66
O=C(O)Cn1nnc(-c2cnc(N3CCN(c4cc(C(F)(F)F)ccc4Cl)CC3)s2)n1	> 7.70
O=C(O)Cn1nnc(-c2cnc(N3CCN(c4cc(Cl)ccc4F)CC3)s2)n1	> 7.70
O=C(O)Cn1nnc(-c2cnc(N3C[C@@H]4C[C@H]3CN4c3cc(F)ccc3Cl)s2)n1	> 7.70
O=C(O)Cn1nnc(-c2cnc(N3C[C@@H]4C[C@H]3CN4c3cccc(Cl)c3)s2)n1	> 7.70
O=C(O)Cn1nnc(-c2cc(N3CCC(C(=O)c4ccc(F)cc4Cl)CC3)no2)n1	7.30
CCC(C)c1ccccc1C(=O)C1CCN(c2cc(-c3nnn(CC(=O)O)n3)on2)CC1 (stereo not shown)	> 7.70
O=C(O)Cn1nnc(-c2cc(N3CCC(C(=O)c4cc(Cl)ccc4C(F)F)CC3)no2)n1	> 7.70
CC1(c2ccccc2C(=O)C2CCN(c3cc(-c4nnn(CC(=O)O)n4)on3)CC2)CC1	> 7.70
CC(C)(F)c1ccccc1C(=O)C1CCN(c2cc(-c3nnn(CC(=O)O)n3)on2)CC1	> 7.70
CC1(c2ccc(F)cc2C(=O)C2CCN(c3cc(-c4nnn(CC(=O)O)n4)on3)CC2)CC1	> 7.70

Structure (SMILES)	pIC50
Cc1ccc(C(F)(F)F)cc1C(=O)C1CCN(c2cc(-c3nnn(CC(=O)O)n3)on2)CC1	7.32
O=C(O)Cn1nnc(-c2cc(N3CCC(C(=O)c4cc(F)ccc4C(F)F)CC3)no2)n1	> 7.70
Cc1ccc(F)cc1C(=O)C1CCN(c2cc(-c3nnn(CC(=O)O)n3)on2)CC1	7.70
O=C(O)Cn1nnc(-c2cc(N3CCC(C(=O)c4cc(C(F)(F)F)ccc4C(F)(F)F)CC3)no2)n1	> 7.70
O=C(O)Cn1nnc(-c2cc(N3CCC(C(=O)c4ccccc4OC(F)(F)F)CC3)no2)n1	7.18
O=C(O)Cn1nnc(-c2cnc(N3CCC(C(=O)c4cc(Cl)ccc4Cl)CC3)nc2)n1	7.24
O=C(O)Cn1nnc(-c2cnc(N3CCC(C(=O)c4cc(F)ccc4Cl)CC3)nc2)n1	7.34
O=C(O)Cn1nnc(-c2cnc(N3CCC(C(=O)c4cc(OC(F)(F)F)ccc4Cl)CC3)nc2)n1	> 7.70
O=C(O)Cn1nnc(-c2cnc(N3CCC(C(=O)c4cc(F)ccc4C(F)(F)F)CC3)nc2)n1	7.57
O=C(O)Cn1nnc(-c2cc(N3CCC(C(=O)c4cc(F)ccc4CC4CC4)CC3)no2)n1	> 7.70
O=C(O)Cn1nnc(-c2cc(N3CCC(C(=O)c4cc(F)ccc4C4CCC4)CC3)no2)n1	> 7.70
O=C(O)Cn1nnc(-c2cc(N3CCC(C(=O)c4cc(F)ccc4C4CC4)CC3)no2)n1	> 7.70
O=C(O)Cn1nnc(-c2cc(N3CCC(C(=O)c4cc(Br)ccc4Br)CC3)no2)n1	> 7.70
COc1ccc(OC(F)(F)F)cc1C(=O)C1CCN(c2cc(-c3nnn(CC(=O)O)n3)on2)CC1	7.07
Cc1ccc(Cl)cc1C(=O)C1CCN(c2cc(-c3nnn(CC(=O)O)n3)on2)CC1	7.55
CCCc1ccc(Cl)cc1C(=O)C1CCN(c2cc(-c3nnn(CC(=O)O)n3)on2)CC1	7.64
CCc1ccc(Cl)cc1C(=O)C1CCN(c2cc(-c3nnn(CC(=O)O)n3)on2)CC1	> 7.70
O=C(O)Cn1nnc(-c2cc(N3CCC(C(=O)c4cc(Cl)ccc4Br)CC3)no2)n1	> 7.70
COc1ccc(Cl)c(C(=O)C2CCN(c3cc(-c4nnn(CC(=O)O)n4)on3)CC2)c1	7.02
Cc1ccc(Cl)c(C(=O)C2CCN(c3cc(-c4nnn(CC(=O)O)n4)on3)CC2)c1	7.10
O=C(O)Cn1nnc(-c2cc(N3CCC(C(=O)c4cc(F)ccc4Br)CC3)no2)n1	> 7.70
O=C(O)Cn1nnc(-c2cc(N3CCC(C(=O)c4ccccc4OC(F)F)CC3)no2)n1	7.40
O=C(O)Cn1nnc(-c2cc(N3CCC(C(=O)c4cc(Cl)ccc4C(F)(F)F)CC3)no2)n1	7.49
O=C(O)Cn1nnc(-c2cc(N3CCC(C(=O)c4ccccc4Br)CC3)no2)n1	7.55
O=C(O)Cn1nnc(-c2cc(N3CCC(C(=O)c4cc(Cl)ccc4Cl)CC3)no2)n1	7.51
CCC(C)c1ccc(F)cc1C(=O)C1CCN(c2cc(-c3nnn(CC(=O)O)n3)on2)CC1 (stereo not shown) [drawing 70]	> 7.70
CCC(C)c1ccc(F)cc1C(=O)C1CCN(c2cc(-c3nnn(CC(=O)O)n3)on2)CC1 (stereo not shown) [drawing 71]	> 7.70
